The results in this text go back to patent US10905121B2, “Method for controlling PPO resistant weeds” (BASF SE, priority 2016, dated 2021).

Assay [1] has as its system Amaranthus tamariscinus (AMATA, common waterhemp), PPO resistant biotype 1 (w.2). Put plainly: greenhouse herbicidal activity test, weed w.2. Conditions: scale 0 to 100. The assay is classed as in vivo. An excerpt: (§1) The culture containers used were plastic flowerpots containing loamy sand with approximately 3.0% of humus as the substrate. The seeds of the test plants were sown separately for each species and/or resistant biotype. For the pre-emergence treatment, the active ingredients, which had been suspended or emulsified in water, were applied directly after sowing by means of finely distributing nozzles. The containers were irrigated gently to promote germination and growth and subsequently covered with transparent plastic hoods until the plants had rooted. This cover caused uniform germination of the test plants, unless this had been impaired by the active ingredients. For the post-emergence treatment, the test plants were first grown to a height of 3 to 15 cm, depending on the plant habit, and only then treated with the active ingredients which had been suspended or emulsified in water. For this purpose, the test plants were either sown directly and grown in the same containers, or they were first grown separately as seedlings and transplanted into the test containers a few days prior to treatment. Depending on the species, the plants were kept at 10-25° C. or 20-35° C., respectively. The test period extended over 2 to 4 weeks. During this time, the plants were tended, and their response to the individual treatments was evaluated. The evaluation was carried out by using a scale from 0 to 100. […]

Assay [2] concerns sensitive (w.1) and resistant weeds (w.2 to w.5). Kind of assay: greenhouse herbicidal activity test, summary over all biotypes. The format is in vivo, Amaranthus tamariscinus. As to conditions: w.1 to w.5, including those shown to contain the ΔG210 mutation.
Text: as §1

Assay [3] deals with Amaranthus tamariscinus (AMATA, common waterhemp), Sensitive biotype (w.1). Put plainly: greenhouse herbicidal activity test, weed w.1. The format is in vivo. Conditions: scale 0 (no damage) to 100 (complete destruction).
Text: as §1

The subject of assay [4] is Amaranthus tamariscinus (AMATA, common waterhemp), PPO resistant biotype 2 (w.3). Put plainly: greenhouse herbicidal activity test, weed w.3. The assay is classed as in vivo. Conditions: scale 0 to 100.
Text: as §1

Assay [5] has as its system Amaranthus tamariscinus (AMATA, common waterhemp), PPO resistant biotype 4 confirmed to contain the ΔG210 mutation (w.5). Put plainly: greenhouse herbicidal activity test, weed w.5. The format is in vivo. Conditions: PPO resistant biotype 4 (ΔG210), scale 0 to 100.
Text: as §1

For assay [6], the system named is Amaranthus tamariscinus (AMATA, common waterhemp), PPO resistant biotype 3 confirmed to contain the ΔG210 mutation (w.4). Kind of assay: greenhouse herbicidal activity test, weed w.4. The assay is classed as in vivo. As to conditions: PPO resistant biotype 3 (ΔG210), scale 0 to 100.
Text: as §1

In the case of `C=CCOC(=O)C(C)(C)OC(=O)c1cc(-n2c(=O)cc(C(F)(F)F)n(C)c2=O)ccc1Cl` [(I).1, butafenacil], the “Weed control (%) w.2” value in assay [1] (use rate 4 g/ha) and in assay [1] (use rate 8 g/ha) was 100% in each case. Further, the “activity on sensitive and resistant weeds (in words)” value in assay [2] was “very good activity”. Besides, the “Weed control (%) w.1” value in assay [3] (use rate 4 g/ha) and in assay [3] (use rate 8 g/ha) was 100% in each case. For the same compound, the “Weed control (%) w.3” value in assay [4] (use rate 4 g/ha) and in assay [4] (use rate 8 g/ha) was 100% in each case. The “Weed control (%) w.5” value was 80% in assay [5] (use rate 4 g/ha) and 83% in assay [5] (use rate 8 g/ha). The figures for the “Weed control (%) w.4” value in assay [6] (use rate 4 g/ha) and in assay [6] (use rate 8 g/ha) were 80% and 85%, respectively.
